Calls of active or inactive are those of the source.
Key:
[1] = Luminescence Cell-Based Dose Retest to Confirm Inhibitors of Cancer Stem Cells. [Related pubchem assays (depositor defined):AID2717, AID2721]; type: functional; conditions: Homo sapiens
Streptococcus = assay: Group A Streptococcus viability loss, dose response, counter-screen for streptokinase expression inhibitor project, luminescence, BacTiterGlo (AID 1915); type: functional, organism-based;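 further: potency for reduction of bacterial viability or growth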
[2] = tested on: Streptococcus sp. 'group A'; assay: growth inhibition of control SK(-) GAS strain, dose response, counter-screen for streptokinase expression inhibitor project, luminescence, kanamycin, BacTiterGlo, confirmation (AID 1900); type: functional, organism-based
Streptokinase A = molecular target: T1, Streptokinase A (Streptococcus pyogenes serotype M1, UniProt P10520); assay: S. pyogenes streptokinase expression inhibitors, potency, dose response, plasminogen activation absorbance, OD405 (AID 1914); type: functional, Streptococcus pyogenes M1 GAS;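 further: secreted streptokinase activity via plasminogen activation per viability signal from cell pellet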
T1 sequence (P10520 whole entry): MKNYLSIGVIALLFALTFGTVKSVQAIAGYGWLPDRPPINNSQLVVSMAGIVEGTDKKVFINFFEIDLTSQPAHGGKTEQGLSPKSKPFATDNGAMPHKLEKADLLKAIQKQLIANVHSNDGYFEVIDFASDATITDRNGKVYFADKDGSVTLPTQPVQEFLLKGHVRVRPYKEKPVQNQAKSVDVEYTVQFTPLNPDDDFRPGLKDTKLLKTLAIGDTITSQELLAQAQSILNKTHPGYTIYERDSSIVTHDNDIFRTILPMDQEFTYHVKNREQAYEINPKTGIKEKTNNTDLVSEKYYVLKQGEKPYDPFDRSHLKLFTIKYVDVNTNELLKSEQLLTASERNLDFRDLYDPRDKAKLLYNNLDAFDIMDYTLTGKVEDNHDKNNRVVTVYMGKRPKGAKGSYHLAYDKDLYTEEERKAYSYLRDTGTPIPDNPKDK

[3] = molecular target: T2, Rac GTPase-activating protein 1 (Homo sapiens, UniProt Q9H0H5); assay: MgcRacGAP GTPase-activating activity inhibitors, confirmation, biochemical, ADP Hunter fluorescence, primary and confirmatory (AID 624330); type: functional
T2 sequence (Q9H0H5 whole entry): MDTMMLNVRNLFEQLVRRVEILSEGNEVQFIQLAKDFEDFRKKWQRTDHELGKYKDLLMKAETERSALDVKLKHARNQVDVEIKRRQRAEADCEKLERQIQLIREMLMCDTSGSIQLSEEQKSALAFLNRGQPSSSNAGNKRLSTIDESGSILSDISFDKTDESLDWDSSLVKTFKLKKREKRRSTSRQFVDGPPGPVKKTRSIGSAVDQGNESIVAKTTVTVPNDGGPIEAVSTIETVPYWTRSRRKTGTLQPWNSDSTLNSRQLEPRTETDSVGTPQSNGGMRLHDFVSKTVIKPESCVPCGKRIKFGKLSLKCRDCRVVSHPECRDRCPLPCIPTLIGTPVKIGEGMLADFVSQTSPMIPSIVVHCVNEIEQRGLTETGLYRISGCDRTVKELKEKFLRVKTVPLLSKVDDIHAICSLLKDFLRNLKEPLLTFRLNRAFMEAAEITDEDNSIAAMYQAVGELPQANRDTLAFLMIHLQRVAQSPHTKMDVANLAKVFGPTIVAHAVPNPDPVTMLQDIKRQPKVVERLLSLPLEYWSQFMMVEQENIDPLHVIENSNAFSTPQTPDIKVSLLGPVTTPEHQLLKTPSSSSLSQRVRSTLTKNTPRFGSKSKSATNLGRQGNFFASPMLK

[4] = growth suppression of beta-catenin-knockout colon cells, dose response, cell-based, HCT116, human colon tumor (AID 1045); type: functional;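 further: HCT116 colon tumor cells with beta catenin knocked out; cells exposed to compound for 60 hours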
[5] = growth suppression of PTEN-null colon cells, dose response, cell-based, HCT116 PTEN knockout (AID 1047); type: functional;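 further: HCT116 colon tumor cells with PTEN knocked out; cells exposed to compound for 60 hours before readout; potency for loss of cell viability measured by luminescence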
Cytochrome P450 3A4 = Cytochrome P450 3A4 (Homo sapiens, UniProt P08684);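 further: CYP3A4 tested as one member of a cytochrome P450 panel screen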
Cytochrome P450 1A2 = molecular target: T3, Cytochrome P450 1A2 (Homo sapiens, UniProt P05177);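 further: PubChem cytochrome P450 panel assay, CYP1A2 panel member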
T3 sequence (P05177 whole entry): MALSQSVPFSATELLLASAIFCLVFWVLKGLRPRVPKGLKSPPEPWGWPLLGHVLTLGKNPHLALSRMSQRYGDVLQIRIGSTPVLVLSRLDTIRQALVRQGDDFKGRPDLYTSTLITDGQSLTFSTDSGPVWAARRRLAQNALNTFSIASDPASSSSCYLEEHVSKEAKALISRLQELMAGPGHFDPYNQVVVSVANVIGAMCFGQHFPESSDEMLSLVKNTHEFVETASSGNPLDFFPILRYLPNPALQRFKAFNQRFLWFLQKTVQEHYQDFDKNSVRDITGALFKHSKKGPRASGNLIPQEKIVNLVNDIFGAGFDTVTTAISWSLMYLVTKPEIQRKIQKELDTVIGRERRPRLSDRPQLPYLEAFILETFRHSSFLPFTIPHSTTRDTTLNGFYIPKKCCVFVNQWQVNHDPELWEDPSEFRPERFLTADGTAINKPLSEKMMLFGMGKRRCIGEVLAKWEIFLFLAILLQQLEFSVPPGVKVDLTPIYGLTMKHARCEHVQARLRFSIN

Cytochrome P450 2D6 = Cytochrome P450 2D6 (Homo sapiens, UniProt P10635);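 further: CYP2D6 member of a cytochrome P450 panel assay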
[6] = molecular target: T4, Corticotropin-releasing factor receptor 2/Corticotropin-releasing factor-binding protein (Homo sapiens, UniProt P24387+Q13324); assay: activators of CRF receptor 2 with binding protein – uHTS hits, confirmation (AID 602473); type: functional; conditions: read-out: EC50_Mean
T4 sequence (Q13324 whole entry): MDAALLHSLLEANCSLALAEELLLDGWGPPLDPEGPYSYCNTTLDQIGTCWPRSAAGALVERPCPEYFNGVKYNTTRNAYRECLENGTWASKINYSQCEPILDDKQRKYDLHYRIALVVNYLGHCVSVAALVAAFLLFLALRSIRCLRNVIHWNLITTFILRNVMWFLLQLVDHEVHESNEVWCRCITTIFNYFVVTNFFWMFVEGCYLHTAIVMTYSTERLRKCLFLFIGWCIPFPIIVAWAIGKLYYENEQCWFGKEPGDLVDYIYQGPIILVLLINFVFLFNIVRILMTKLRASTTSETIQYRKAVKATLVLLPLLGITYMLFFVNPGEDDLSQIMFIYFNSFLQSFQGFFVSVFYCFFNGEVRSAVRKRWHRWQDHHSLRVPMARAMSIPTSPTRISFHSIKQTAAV
T4 sequence (P24387 whole entry): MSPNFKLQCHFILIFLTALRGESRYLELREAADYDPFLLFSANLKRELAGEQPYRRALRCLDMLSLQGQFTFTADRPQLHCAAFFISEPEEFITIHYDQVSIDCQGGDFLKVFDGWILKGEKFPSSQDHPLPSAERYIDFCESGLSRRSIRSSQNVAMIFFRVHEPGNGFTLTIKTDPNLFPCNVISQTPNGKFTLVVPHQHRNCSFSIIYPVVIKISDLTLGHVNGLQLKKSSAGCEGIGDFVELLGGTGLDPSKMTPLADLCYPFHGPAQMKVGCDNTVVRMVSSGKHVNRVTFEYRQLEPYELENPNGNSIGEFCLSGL

[7] = molecular target: T4, Corticotropin-releasing factor receptor 2/Corticotropin-releasing factor-binding protein; assay: Dose Response confirmation of uHTS hits for small molecule antagonists of the CRF-binding protein and CRF-R2 receptor complex.; type: functional; conditions: read-out: IC50_Mean
[8] = molecular target: T5, RNA-binding protein pos-1 (Caenorhabditis elegans, UniProt G5EF15); assay: inhibitors of POS-1/mex-3 RNA binding, dose response, biochemical, fluorescence polarization (AID 1964);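 further: purified POS-1 fused to maltose binding protein made in E. coli; potency of compounds blocking POS-1 binding to fluorescent RNA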
T5 sequence (G5EF15 whole entry): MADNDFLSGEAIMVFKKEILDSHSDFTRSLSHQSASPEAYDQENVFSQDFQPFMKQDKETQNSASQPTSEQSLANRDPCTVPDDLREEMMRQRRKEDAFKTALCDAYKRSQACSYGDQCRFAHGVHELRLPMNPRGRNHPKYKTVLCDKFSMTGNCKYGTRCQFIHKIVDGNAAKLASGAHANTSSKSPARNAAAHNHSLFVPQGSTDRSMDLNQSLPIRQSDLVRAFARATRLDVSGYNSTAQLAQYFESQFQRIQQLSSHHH

Cytochrome P450 2C9 = Cytochrome P450 2C9 (Homo sapiens, UniProt P11712)
Sequence of Cytochrome P450 2C9 (P11712 whole entry): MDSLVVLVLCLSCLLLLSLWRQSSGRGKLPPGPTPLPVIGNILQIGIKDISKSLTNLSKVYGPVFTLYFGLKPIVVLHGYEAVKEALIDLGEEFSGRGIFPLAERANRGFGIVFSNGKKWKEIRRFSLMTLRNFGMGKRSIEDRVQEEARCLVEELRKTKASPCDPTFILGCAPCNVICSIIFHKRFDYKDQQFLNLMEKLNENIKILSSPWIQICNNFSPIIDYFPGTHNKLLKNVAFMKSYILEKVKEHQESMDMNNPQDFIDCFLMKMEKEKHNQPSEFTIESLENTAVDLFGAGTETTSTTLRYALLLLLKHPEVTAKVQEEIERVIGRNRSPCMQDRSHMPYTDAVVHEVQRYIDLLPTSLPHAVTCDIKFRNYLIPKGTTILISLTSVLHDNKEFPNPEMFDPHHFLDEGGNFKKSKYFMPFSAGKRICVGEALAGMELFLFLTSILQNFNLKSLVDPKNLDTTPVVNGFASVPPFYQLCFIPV

Sequence of Cytochrome P450 3A4 (P08684 whole entry): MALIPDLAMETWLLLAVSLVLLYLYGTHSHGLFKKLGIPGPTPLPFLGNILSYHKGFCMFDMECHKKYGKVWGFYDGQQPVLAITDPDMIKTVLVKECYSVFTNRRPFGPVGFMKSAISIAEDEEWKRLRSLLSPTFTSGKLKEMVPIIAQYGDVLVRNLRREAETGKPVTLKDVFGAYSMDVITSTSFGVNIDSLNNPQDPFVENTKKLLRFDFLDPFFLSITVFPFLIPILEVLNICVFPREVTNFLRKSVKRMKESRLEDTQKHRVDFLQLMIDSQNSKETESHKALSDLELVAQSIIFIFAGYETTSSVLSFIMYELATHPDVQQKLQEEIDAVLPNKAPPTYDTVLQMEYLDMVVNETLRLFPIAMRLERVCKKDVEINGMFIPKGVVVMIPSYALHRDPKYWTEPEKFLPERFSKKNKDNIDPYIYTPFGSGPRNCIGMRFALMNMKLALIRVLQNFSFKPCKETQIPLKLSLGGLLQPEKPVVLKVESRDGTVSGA
Sequence of Cytochrome P450 2D6 (P10635 whole entry): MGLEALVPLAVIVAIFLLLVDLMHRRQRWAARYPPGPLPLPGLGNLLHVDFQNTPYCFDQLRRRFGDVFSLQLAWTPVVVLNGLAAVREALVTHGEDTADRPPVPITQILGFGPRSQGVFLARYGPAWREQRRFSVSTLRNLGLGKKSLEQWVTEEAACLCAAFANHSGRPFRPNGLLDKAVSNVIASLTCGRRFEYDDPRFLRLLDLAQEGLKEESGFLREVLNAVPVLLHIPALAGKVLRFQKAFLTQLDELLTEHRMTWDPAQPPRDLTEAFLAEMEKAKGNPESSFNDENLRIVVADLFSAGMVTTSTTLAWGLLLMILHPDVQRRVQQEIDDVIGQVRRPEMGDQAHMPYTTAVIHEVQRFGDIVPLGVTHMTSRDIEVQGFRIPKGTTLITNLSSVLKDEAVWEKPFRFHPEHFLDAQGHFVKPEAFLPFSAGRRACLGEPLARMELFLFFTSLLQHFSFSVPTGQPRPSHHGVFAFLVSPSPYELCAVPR

CC(C)=CCc1c(O)cc2c(c1O)C(=O)CC(c1ccc(O)cc1)O2 (configuration not stated)
AC50 [1]: 3.72 µM (active) | EC50 (Streptococcus): 4 µM (active) | EC50 [2]: 3.55 µM (active) | EC50 (Streptokinase A): > 150 µM (not active)

Oc1ccc(/C=N/Nc2nc(N3CCCC3)nc(N3CCCC3)n2)cc1O
IC50 [3]: 57.3 µM (active)

CC(C)Cn1c(N)c(C(=O)CSc2ncnc3sc4c(c23)CCCC4)c(=O)n(C)c1=O
EC50 [4]: 12.2 µM (active) | EC50 [5]: 12.1 µM (active)

Cc1ccc(-c2cnc(NC(=O)CCC(=O)N3CCCCC3)n2C)cc1
AC50 (Cytochrome P450 3A4): 39.8 µM (inconclusive) | AC50 (Cytochrome P450 1A2): 25.1 µM (inconclusive) | AC50 (Cytochrome P450 2D6): 14.1 µM (inconclusive)

Cc1ccc(-c2nnc(S)n2/N=C/c2ccc(C(=O)O)cc2)cc1
IC50 [3]: 74.4 µM (active)

CCCn1c(=O)c2ccccc2n2c(SCCNCCO)nnc12
IC50 [3]: 52.2 µM (active)

CN(C)S(=O)(=O)c1ccc(C(=O)OCC(=O)Nc2ccc(OC(F)F)cc2)cc1
EC50 [6]: > 53 µM (inactive) | IC50 [7]: > 47.1 µM (inactive)

COc1ccccc1NS(=O)(=O)c1cc(N)ccc1N1CCCC1
IC50 [3]: 47.8 µM (active)

NC(=O)CSc1nnnn1-c1ccc2c(c1)OCCO2
EC50 [6]: > 53 µM (inactive) | IC50 [7]: > 47.1 µM (inactive)

Nc1sc(-c2ccccc2)c(Cc2ccccc2)c1C(=O)O
IC50 [3]: 67.6 µM (active)

C[C@H](CO)N1C[C@H](C)[C@@H](CN(C)C(=O)c2ccc3ccn(C)c3c2)OCc2cn(nn2)CCCC1=O
EC50 [6]: > 53 µM (inactive) | IC50 [7]: > 47.1 µM (inactive)

CCOC(=O)C1=C(C)N=c2s/c(=C/c3ccc(OCC(=O)O)cc3)c(=O)n2C1c1ccc(OC)cc1OC (configuration not stated)
EC50 [8]: 85.1 µM (active)

CC(Cc1ccccc1)N/C=C1\CC(=O)NC1=O (configuration not stated)
AC50 (Cytochrome P450 3A4): 3.98 µM (inconclusive)

CC(C(=O)NC1CCCCC1)N1CCN(C)CC1 (configuration not stated)
IC50 [3]: 93.7 µM (active)

O=C(CN1CCN(c2ncccn2)CC1)NCCC1=CCCCC1
AC50 (Cytochrome P450 3A4): 17.8 µM (inconclusive)

Oc1ccccc1CNc1ccc2c(c1)OCCO2
IC50 [3]: 94.9 µM (active)

CO[C@@H]1/C=C\CC(=O)N[C@@H](C)C(=O)OC[C@@H](OC)[C@H](C)CCCC(=O)OC[C@H]1C
AC50 (Cytochrome P450 3A4): 3.16 µM (inconclusive)

COc1ccc(-c2nc3cnc(OC)nc3n(CCc3ccccc3)c2=O)cc1
AC50 (Cytochrome P450 3A4): 10 µM (inconclusive) | AC50 (Cytochrome P450 2C9): 6.31 µM (inconclusive) | AC50 (Cytochrome P450 1A2): 6.31 µM (inconclusive)

COc1cc(/C=C/C(=O)OCC(=O)NNC(=O)c2cc(Cl)ccc2OC)ccc1O
IC50 [3]: 60.5 µM (active)

CN(c1ccccc1)S(=O)(=O)c1ccc2c(c1)oc(=O)n2C
EC50 [6]: > 53 µM (inactive) | IC50 [7]: > 47.1 µM (inactive)

COc1ccc(-c2csc(-n3ncc(-c4cccs4)c3N)n2)cc1
AC50 (Cytochrome P450 3A4): 8.91 µM (inconclusive) | AC50 (Cytochrome P450 2C9): 0.0501 µM (inconclusive) | AC50 (Cytochrome P450 1A2): 0.355 µM (inconclusive)

O=C(CSCc1ccccc1Br)NNC(=S)NCc1ccco1
EC50 [6]: > 53 µM (inactive) | IC50 [7]: > 47.1 µM (inactive)

C/C(=C\C1CCCCC1)C(NC(=O)c1ccc(C(F)(F)F)cc1)c1ccc(-c2ccccc2)cc1 (configuration not stated)
AC50 (Cytochrome P450 3A4): 12.6 µM (inconclusive)

COC(=O)[C@@H]1CC[C@H](C)[C@@H](c2ccc(C)cc2)N1C(=O)c1ccc(/C=N\O[C@@H](C)c2cn([C@H]3COC[C@H]3O)nn2)cc1
AC50 (Cytochrome P450 3A4): 3.16 µM (inconclusive) | AC50 (Cytochrome P450 2C9): 3.16 µM (inconclusive)

CC(=O)N1c2ccc(S(=O)(=O)N(C)CC(=O)NC3CCCC3)cc2CC1C (configuration not stated)
EC50 [6]: > 53 µM (inactive) | IC50 [7]: > 47.1 µM (inactive)

O=C(O)c1cccc(NC(=NS(=O)(=O)c2ccccc2)c2ccccc2)c1
EC50 [6]: > 53 µM (inactive) | IC50 [7]: > 47.1 µM (inactive)

c1ccc(C(c2nnnn2Cc2cccs2)N2CCN(C3CCCC3)CC2)cc1 (configuration not stated)
EC50 [6]: > 53 µM (inactive) | IC50 [7]: > 47.1 µM (inactive)

COc1ccc2[nH]c3c(=O)n(Cc4ccc(C(=O)N5CCC(C(N)=O)CC5)cc4)c(=S)[nH]c3c2c1
IC50 [3]: 61.3 µM (active)

Brc1ccc([C@H]2CN3CCSC3=N2)cc1
AC50 (Cytochrome P450 3A4): 25.1 µM (inconclusive) | AC50 (Cytochrome P450 1A2): 15.8 µM (inconclusive)

CN(C)c1ccc(/C=N\Nc2ccccn2)cc1
IC50 [3]: 31.6 µM (active)

CCCCn1c(SCC(N)=O)nc2sc3c(c2c1=O)CCC3
AC50 [1]: 126 µM (active)

CCN(CC)Cc1nc(O)c2c(n1)-c1ccccc1CC21CCCC1
AC50 (Cytochrome P450 3A4): 14.1 µM (inconclusive)

Source: ChEMBL document CHEMBL1201862, “PubChem BioAssay data set” (2004)
